Experimental data taken from patent US8314253B2, “Bridged tetrahydronaphthalene derivatives” (Actelion Pharmaceuticals Ltd., priority 2008, dated 2012).

Key:
[1] = system: human Cav3.1 Cav3.2 or Cav3.3 channel; experiment: In vitro assay T channel (FLIPR, Ca2+-induced fluorescence); type: cell-based; settings: HEK293 cells expressing human Cav3.1 Cav3.2 or Cav3.3; 10 mM Ca2+; determined up to 10 μM; read-out: T channel antagonistic activity IC50
Description: Human embryonic kidney (HEK293) cells expressing the human Cav3.1 Cav3.2 or Cav3.3 channel, respectively, are grown in culture medium (DMEM containing 10% heat-inactivated fetal calf serum (FCS), 100 U/ml penicillin, 100 μg/ml streptomycin and 1 mg/ml G418). The cells are seeded at 20.000 cells/well into 384-well black clear bottom sterile plates (poly-L-lysine-coated, Becton Dickinson). The seeded plates are incubated overnight at 37° C. in 5% CO2. The Ca^2+ solution is prepared as 100 mM stock solution in 100 mM tetraethylammoniumchloride (TEA-chloride), 50 mM HEPES, 2.5 mM CaCl2, 5 mM KCl, 1 mM MgCl2, adjusted to pH 7.2 with TEA-hydroxide, for use in the assay at a final concentration of 10 mM. […] Fluorescence is measured for each well at 2 second intervals for 8 minutes, and the area under the curve of each fluorescence peak is compared to the area of the fluorescence peak induced by 10 mM Ca^2+ with vehicle in place of antagonist.

[2] = system: isolated mouse hearts; experiment: Effect on isolated hearts according to the Langendorff method (Lgdff)
Description: The compounds were tested for their potential to reduce blood pressure and their effect on the contractility of the heart muscle. EC50 values on isolated mouse hearts were determined according to Literature (Doring H J., The isolated perfused heart according to Langendorff technique—function—application, Physiol. Bohemoslov. 1990, 39(6), 481-504; Kligfield P, Homer H, Brachfeld N., A model of graded ischemia in the isolated perfused rat heart, J. Appl. Physiol. 1976 June, 40(6), 1004-8).
15 example compounds have been measured using the procedure described above for the Langendorff experiment.

Row | SMILES | IC50 [1] [nM] | EC50 [2] [nM]
1 | COc1cccc2[nH]c(CCCN(C)CC[C@@]3(OC(=O)CC(F)(F)F)C[C@@H]4CCC[C@H]3c3ccccc34)nc12 [Example 13B, 3,3,3-Trifluoro-propionic acid (1S,8S,12S)-12-(2-{[3-(4-methoxy-1H-benzoimidazol-2-yl)-propyl]-methyl-amino}-ethyl)-tricyclo[6.3.2.02,7]trideca-2,4,6-trien-12-yl ester or 3,3,3-trifluoro-propionic acid (1R,8R,12R)-12-(2-{[3-(4-methoxy-1H-benzoimidazol-2-yl)-propyl]-methyl-amino}-ethyl)-tricyclo[6.3.2.02,7]trideca-2,4,6-trien-12-yl ester] | 653 | 6
2 | CC(C)C(=O)OC1(CCN(C)CCCc2nc3ccccc3[nH]2)CC2CCCC1c1ccccc12 [Example 11A, Isobutyric acid (1S,8S,12S)-12-(2-{[3-(1H-Benzoimidazol-2-yl)-propyl]-methyl-amino}-ethyl)-tricyclo[6.3.2.0^2,7]trideca-2,4,6-trien-12-yl ester or isobutyric acid (1R,8R,12R)-12-(2-{[3-(1H-benzoimidazol-2-yl)-propyl]-methyl-amino}-ethyl)-tricyclo[6.3.2.0^2,7]trideca-2,4,6-trien-12-yl ester] | 1050 | 22
3 | CC(C)C(=O)O[C@@]1(CCN(C)CCCc2nc3ccccc3[nH]2)C[C@H]2CC[C@@H]1c1cc(F)c(F)cc12 (relative stereo) [Example 9A, rac-Isobutyric acid (1R*,8R*,9R*)-9-(2-{[3-(1H-benzoimidazol-2-yl)-propyl]-methyl-amino}-ethyl)-4,5-difluoro-tricyclo[6.2.2.0^2,7]dodeca-2,4,6-trien-9-yl ester] | 1400 | 30
4 | COc1ccc(C)c2[nH]c(CCCN(C)CC[C@@]3(OC(=O)CC(F)(F)F)C[C@@H]4CCC[C@H]3c3ccccc34)nc12 [Example 14B, 3,3,3-Trifluoro-propionic acid (1S,8S,12S)-12-(2-{[3-(4-methoxy-7-methyl-1H-benzoimidazol-2-yl)-propyl]-methyl-amino}-ethyl)-tricyclo[6.3.2.0^2,7]trideca-2,4,6-trien-12-yl ester or 3,3,3-trifluoro-propionic acid (1R,8R,12R)-12-(2-{[3-(4-methoxy-7-methyl-1H-benzoimidazol-2-yl)-propyl]-methyl-amino}-ethyl)-tricyclo[6.3.2.0^2,7]trideca-2,4,6-trien-12-yl ester] | 514 | –
5 | CC(C)C(=O)O[C@]1(CCN(C)CCCc2nc3ccccc3[nH]2)C[C@H]2CC[C@@H]1c1ccccc12 (relative stereo) [Example 5A, rac-Isobutyric acid (1R*,8R*,9S*)-9-(2-{[3-(1H-benzoimidazol-2-yl)-propyl]-methyl-amino}-ethyl)-tricyclo[6.2.2.0^2,7]dodeca-2,4,6-trien-9-yl ester] | 5180 | –
6 | CC(C)C(=O)O[C@@]1(CCN(C)CCCc2nc3ccccc3[nH]2)C[C@H]2CC[C@@H]1c1ccccc12 (relative stereo) [Example 1B, rac-Isobutyric acid (1R*,8R*,9R*)-9-(2-{[3-(1H-benzoimidazol-2-yl)-propyl]-methyl-amino}-ethyl)-tricyclo[6.2.2.0^2,7]dodeca-2,4,6-trien-9-yl ester] | 2070 | 42
7 | CC(C)C(=O)O[C@@]1(CCN2CCC(c3nc4ccccc4[nH]3)CC2)C[C@H]2CC[C@@H]1c1ccccc12 (relative stereo) [Example 6A, rac-Isobutyric acid (1R*,8R*,9R*)-9-{2-[4-(1H-benzoimidazol-2-yl)-piperidin-1-yl]-ethyl}-tricyclo[6.2.2.0^2,7]dodeca-2,4,6-trien-9-yl ester] | 751 | –
8 | CN(CCCc1nc2ccccc2[nH]1)CC[C@]1(O)C[C@H]2CC[C@@H]1c1cc(F)c(F)cc12 (relative stereo) [Example 9, rac-(1R*,8R*,9R*)-9-(2-{[3-(1H-Benzoimidazol-2-yl)-propyl]-methyl-amino}-ethyl)-4,5-difluoro-tricyclo[6.2.2.0^2,7]dodeca-2,4,6-trien-9-ol] | 1850 | –
9 | COc1cccc2[nH]c(CCCN(C)CCC3(OC(=O)C(C)C)CC4CCCC3c3ccccc34)nc12 [Example 13A, Isobutyric acid (1S,8S,12S)-12-(2-{[3-(4-Methoxy-1H-benzoimidazol-2-yl)-propyl]-methyl-amino}-ethyl)-tricyclo[6.3.2.0^2,7]trideca-2,4,6-trien-12-yl ester or isobutyric acid (1R,8R,12R)-12-(2-{[3-(4-methoxy-1H-benzoimidazol-2-yl)-propyl]-methyl-amino}-ethyl)-tricyclo[6.3.2.0^2,7]trideca-2,4,6-trien-12-yl ester] | 544 | –
10 | CN(CCCc1nc2ccccc2[nH]1)CCC1(O)CC2CCC1c1ccccc12 (single isomer, unassigned) [Example 2, (1S,8S,9S)-9-(2-{[3-(1H-Benzoimidazol-2-yl)-propyl]-methyl-amino}-ethyl)-tricyclo[6.2.2.0^2,7]dodeca-2,4,6-trien-9-ol or (1R,8R,9R)-9-(2-{[3-(1H-benzoimidazol-2-yl)-propyl]-methyl-amino}-ethyl)-tricyclo[6.2.2.0^2,7]dodeca-2,4,6-trien-9-ol] | 2900 | –
